# Columns and labels:
# [1] = system: Receptor-type tyrosine-protein kinase FLT3 (Homo sapiens), P36888 [UNDEFINED MUTATION]; details: at 10 µM
# [2] = target: T1, Serine/threonine-protein kinase TAO2 (Homo sapiens) (UniProt Q9UL54); assay: Selectivity interaction (KinomeScan (DiscoverX)) EUB0000655a TAOK2; details: at 10 µM
# T1 sequence (whole entry): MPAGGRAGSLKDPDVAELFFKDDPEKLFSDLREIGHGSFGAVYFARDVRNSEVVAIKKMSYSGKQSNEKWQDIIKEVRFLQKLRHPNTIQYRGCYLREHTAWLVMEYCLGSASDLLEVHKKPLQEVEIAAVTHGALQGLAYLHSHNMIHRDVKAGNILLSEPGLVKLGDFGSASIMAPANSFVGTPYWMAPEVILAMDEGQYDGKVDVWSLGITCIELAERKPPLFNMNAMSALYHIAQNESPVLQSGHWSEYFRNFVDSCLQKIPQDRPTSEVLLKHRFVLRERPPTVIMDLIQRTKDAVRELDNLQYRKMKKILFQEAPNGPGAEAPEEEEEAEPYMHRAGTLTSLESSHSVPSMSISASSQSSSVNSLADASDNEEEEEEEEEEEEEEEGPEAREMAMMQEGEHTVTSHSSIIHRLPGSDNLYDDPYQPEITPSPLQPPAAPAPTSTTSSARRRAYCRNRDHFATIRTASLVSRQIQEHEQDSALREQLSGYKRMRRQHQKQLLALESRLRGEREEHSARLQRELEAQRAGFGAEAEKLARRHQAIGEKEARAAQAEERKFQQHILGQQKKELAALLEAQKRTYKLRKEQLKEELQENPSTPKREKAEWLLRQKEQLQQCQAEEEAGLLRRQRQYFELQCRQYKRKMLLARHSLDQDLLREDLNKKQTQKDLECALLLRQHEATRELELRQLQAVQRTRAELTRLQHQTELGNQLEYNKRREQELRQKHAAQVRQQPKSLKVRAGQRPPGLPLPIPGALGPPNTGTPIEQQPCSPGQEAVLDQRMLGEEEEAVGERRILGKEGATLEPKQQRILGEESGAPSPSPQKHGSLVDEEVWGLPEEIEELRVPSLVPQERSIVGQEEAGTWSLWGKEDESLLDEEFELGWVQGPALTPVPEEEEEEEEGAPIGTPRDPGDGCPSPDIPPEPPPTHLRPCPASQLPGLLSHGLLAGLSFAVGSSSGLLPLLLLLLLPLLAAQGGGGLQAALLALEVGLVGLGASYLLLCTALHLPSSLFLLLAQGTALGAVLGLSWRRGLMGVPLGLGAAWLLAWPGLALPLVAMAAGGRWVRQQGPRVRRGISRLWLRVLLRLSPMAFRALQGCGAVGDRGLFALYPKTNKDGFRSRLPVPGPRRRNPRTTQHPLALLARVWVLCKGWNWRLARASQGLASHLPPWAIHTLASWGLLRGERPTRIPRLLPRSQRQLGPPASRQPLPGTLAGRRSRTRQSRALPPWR
# [3] = target: Mitogen-activated protein kinase kinase kinase 20 (Homo sapiens) (UniProt Q9NYL2); assay: Selectivity interaction (KinomeScan (DiscoverX)) EUB0001079a MAP3K20; details: at 1 µM
# [4] = target: Mitogen-activated protein kinase 4 (Homo sapiens) (UniProt P31152); assay: Selectivity interaction (KinomeScan (DiscoverX)) EUB0000618a MAPK4; details: at 10 µM
# [5] = target: Proto-oncogene tyrosine-protein kinase ROS (Homo sapiens) (UniProt P08922); assay: Selectivity interaction (SelectScreen profiling (Invitrogen)) EUB0000607a ROS1; details: at 2 µM
# [6] = target: Serine/threonine-protein kinase NIM1 (Homo sapiens, UniProt Q8IY84); assay: Selectivity interaction (KinomeScan (DiscoverX)) EUB0000045b NIM1K
# [7] = target: T2, Myosin-IIIb (Homo sapiens) (UniProt Q8WXR4); details: at 10 µM
# T2 sequence (whole entry): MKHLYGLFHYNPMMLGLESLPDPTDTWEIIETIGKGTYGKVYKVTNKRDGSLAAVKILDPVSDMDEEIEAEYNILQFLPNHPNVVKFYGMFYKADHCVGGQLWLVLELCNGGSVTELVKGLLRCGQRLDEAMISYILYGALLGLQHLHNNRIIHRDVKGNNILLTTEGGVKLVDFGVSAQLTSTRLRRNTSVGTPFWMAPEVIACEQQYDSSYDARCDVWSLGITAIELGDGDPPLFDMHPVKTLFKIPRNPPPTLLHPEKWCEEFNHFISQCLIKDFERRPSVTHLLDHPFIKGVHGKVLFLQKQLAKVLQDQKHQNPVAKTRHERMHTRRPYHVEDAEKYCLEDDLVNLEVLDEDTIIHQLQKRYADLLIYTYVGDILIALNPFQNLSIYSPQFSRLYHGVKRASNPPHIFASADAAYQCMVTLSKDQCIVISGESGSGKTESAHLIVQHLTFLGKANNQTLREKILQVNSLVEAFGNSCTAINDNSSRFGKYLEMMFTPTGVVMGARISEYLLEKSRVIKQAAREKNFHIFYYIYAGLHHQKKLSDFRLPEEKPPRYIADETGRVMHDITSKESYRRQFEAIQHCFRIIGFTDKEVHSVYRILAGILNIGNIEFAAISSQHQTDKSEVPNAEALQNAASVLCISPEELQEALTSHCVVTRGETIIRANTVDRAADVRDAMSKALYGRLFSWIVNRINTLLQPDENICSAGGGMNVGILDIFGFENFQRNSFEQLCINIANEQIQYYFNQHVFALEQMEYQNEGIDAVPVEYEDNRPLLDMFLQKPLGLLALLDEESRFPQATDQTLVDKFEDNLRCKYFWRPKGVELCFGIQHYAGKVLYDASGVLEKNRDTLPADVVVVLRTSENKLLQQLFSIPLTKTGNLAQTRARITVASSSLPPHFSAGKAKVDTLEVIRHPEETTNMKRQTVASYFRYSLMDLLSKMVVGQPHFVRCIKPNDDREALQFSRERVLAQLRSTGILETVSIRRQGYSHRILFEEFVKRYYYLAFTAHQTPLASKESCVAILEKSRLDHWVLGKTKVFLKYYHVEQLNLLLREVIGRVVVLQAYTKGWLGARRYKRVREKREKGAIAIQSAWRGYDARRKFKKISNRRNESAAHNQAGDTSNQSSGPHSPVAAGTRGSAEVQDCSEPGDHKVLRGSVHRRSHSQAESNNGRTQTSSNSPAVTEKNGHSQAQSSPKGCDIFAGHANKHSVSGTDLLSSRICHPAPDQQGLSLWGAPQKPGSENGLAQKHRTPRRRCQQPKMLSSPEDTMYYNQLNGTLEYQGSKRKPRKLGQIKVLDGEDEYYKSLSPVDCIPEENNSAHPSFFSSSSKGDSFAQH
# [8] = target: Calcium/calmodulin-dependent protein kinase type 1D (Homo sapiens) (UniProt Q8IU85); assay: Selectivity interaction (KinomeScan (DiscoverX)) EUB0000092b CAMK1D; details: at 10 µM
# Chain of Calcium/calmodulin-dependent protein kinase type 1D (Homo sapiens) (Q8IU85 whole entry, looked up): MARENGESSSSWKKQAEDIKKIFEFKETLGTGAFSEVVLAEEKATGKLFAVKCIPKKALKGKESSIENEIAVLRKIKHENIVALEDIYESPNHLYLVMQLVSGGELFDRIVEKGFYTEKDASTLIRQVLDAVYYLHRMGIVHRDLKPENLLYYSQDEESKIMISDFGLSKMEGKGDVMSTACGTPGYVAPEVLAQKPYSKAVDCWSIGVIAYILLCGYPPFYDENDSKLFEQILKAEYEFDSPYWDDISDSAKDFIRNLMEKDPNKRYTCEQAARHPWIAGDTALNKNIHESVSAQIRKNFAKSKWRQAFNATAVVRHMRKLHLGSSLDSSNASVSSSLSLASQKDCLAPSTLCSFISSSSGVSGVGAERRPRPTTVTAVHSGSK
# Chain of Serine/threonine-protein kinase NIM1 (Q8IY84 whole entry): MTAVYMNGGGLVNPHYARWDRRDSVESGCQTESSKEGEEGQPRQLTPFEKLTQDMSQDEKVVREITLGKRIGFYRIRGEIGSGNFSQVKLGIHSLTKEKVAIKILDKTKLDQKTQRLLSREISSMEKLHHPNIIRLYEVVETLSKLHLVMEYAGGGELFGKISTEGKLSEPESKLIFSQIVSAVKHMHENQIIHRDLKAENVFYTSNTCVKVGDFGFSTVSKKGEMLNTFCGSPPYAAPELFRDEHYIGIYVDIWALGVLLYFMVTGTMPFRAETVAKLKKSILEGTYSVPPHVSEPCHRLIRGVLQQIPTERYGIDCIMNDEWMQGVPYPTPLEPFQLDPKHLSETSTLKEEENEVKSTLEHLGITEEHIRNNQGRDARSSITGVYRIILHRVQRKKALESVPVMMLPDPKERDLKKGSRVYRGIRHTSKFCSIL
# Chain of Mitogen-activated protein kinase kinase kinase 20 (Homo sapiens) (Q9NYL2 2-800 limits assumed): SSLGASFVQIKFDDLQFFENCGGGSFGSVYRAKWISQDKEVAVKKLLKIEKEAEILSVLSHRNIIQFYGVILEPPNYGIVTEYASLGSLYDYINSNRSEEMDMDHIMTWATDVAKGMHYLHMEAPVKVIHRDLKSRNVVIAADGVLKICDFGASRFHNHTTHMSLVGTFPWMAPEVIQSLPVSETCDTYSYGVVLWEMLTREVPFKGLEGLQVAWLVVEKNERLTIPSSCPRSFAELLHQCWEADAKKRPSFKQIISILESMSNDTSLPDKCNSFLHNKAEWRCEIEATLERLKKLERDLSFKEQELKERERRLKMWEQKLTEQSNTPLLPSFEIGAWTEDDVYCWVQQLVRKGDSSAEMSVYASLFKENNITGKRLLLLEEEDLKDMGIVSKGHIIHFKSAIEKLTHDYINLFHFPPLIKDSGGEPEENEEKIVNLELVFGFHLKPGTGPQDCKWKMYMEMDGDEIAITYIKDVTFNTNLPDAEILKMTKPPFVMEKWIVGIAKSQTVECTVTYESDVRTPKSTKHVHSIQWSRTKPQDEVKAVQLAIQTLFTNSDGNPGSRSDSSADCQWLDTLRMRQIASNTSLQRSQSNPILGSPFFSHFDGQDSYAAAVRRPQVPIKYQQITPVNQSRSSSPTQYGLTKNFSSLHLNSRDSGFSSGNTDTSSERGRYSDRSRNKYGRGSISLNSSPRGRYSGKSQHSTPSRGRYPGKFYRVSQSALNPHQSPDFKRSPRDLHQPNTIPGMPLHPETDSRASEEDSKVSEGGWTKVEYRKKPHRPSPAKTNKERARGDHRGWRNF
# Chain of Mitogen-activated protein kinase 4 (Homo sapiens) (P31152 whole entry): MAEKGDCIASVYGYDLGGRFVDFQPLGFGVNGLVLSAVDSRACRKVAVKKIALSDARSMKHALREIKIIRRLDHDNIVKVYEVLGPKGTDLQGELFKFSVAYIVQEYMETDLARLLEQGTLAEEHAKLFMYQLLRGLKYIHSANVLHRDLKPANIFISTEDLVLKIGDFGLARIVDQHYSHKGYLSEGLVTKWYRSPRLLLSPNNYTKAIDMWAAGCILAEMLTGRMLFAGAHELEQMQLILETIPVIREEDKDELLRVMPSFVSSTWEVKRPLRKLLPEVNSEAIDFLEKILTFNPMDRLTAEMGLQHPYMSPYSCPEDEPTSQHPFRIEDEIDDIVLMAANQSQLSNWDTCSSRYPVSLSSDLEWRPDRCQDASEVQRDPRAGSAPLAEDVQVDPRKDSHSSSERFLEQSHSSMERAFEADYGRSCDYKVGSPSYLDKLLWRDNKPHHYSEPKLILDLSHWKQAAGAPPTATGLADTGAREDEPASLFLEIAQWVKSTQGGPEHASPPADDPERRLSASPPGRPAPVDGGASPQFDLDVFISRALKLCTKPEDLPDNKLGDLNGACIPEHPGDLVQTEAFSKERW
# Chain of Receptor-type tyrosine-protein kinase FLT3 (Homo sapiens), P36888 [UNDEFINED MUTATION] (P36888 whole entry, looked up, change not shown): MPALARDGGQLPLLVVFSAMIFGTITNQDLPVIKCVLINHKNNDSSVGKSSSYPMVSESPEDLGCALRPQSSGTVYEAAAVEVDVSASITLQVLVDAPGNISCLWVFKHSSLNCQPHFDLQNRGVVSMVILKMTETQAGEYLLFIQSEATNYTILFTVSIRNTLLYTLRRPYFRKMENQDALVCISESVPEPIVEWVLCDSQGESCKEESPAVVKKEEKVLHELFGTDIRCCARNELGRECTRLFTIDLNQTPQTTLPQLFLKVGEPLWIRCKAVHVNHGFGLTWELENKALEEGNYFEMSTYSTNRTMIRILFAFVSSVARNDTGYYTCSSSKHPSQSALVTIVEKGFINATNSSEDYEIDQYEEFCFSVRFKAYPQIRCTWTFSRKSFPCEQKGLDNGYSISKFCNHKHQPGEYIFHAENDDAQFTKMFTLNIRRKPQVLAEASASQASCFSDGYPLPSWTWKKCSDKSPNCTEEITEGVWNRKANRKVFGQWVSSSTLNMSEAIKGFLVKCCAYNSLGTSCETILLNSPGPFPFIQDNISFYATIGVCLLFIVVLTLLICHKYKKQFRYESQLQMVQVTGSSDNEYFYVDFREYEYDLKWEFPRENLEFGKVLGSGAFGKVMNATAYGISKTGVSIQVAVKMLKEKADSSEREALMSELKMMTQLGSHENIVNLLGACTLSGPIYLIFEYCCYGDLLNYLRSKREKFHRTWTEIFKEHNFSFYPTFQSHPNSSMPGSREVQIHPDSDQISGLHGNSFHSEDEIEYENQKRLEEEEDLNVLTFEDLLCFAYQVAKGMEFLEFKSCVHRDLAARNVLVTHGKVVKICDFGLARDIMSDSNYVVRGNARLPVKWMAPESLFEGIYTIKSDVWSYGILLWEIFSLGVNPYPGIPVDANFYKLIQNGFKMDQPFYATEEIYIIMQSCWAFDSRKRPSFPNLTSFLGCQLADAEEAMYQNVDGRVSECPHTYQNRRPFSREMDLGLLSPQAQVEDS
smiles,measurement,setting,value
CCN(CC)CCCCNc1ncc2cc(-c3cc(OC)cc(OC)c3)c(NC(=O)NC(C)(C)C)nc2n1,% of control,[1],100%
CN(C)CCOc1ccc(-c2nc(-c3ccncc3)c(-c3ccc4c(c3)CC/C4=N\O)[nH]2)cc1,% of control,[2],65%
Nc1cnc(N2CCc3cc(S(=O)(=O)Nc4c(F)cc(Cl)cc4F)cc(N4CCCC4=O)c32)nc1 [TP-020n],% of control,[3],95%
O[C@H]1CC[C@H](Nc2ncc3nc(Nc4c(F)cc(F)cc4F)n([C@H]4CCOC4)c3n2)CC1,% of control,[4],42%
CNC(=O)Nc1ccc(-c2nc(N3CC4CCC(C3)O4)c3cnn(C4CCC5(CC4)OCCO5)c3n2)cc1,% of inhibition,[5],2%
C=CC(=O)Nc1cc(-n2c(=O)ccc3cnc4ccc(-c5ccc(NS(C)(=O)=O)cc5)cc4c32)ccc1C,% of control,[6]; at 1 µM,100%
same,% of control,[6]; at 10 µM,100%
Cc1cc([C@@H](C)Nc2ccccc2C(=O)O)c2nc(N3CCOCC3)cc(=O)n2c1 [AZD-6482],% of control,[7],93%
CCC(=O)N1CCN(c2ccc(-n3c(=O)ccc4cnc5ccc(-c6cnc7ccccc7c6)cc5c43)cc2C(F)(F)F)CC1,% of control,[8],88%

# From ChEMBL document CHEMBL5465560, “Selectivity Literature for EUbOPEN Chemogenomic Library” (2024)
